Test results reported in patent publication US20080175900A1, “PHARMACEUTICAL FORMULATIONS OF AN ANHYDRATE CRYSTAL FORM OF 2-(3-FLUORO-4-HYDROXYPHENYL)-7-VINYL-1,3-BENZOXAZOL-5-OL” (WYETH, priority 2006, published 2008).

Test: Conversion of the crystal form when suspended and stirred in a solvent at room temperature
Format: physicochemical
From the text: The anhydrate crystal form (Form B) can be converted to other crystal forms under suitable conditions. […] 6, 2006).

## C=Cc1cc(O)cc2nc(-c3ccc(O)c(F)c3)oc12 [Form B, 2-(3-fluoro-4-hydroxyphenyl)-7-vinyl-1,3-benzoxazol-5-ol]
Suspended and stirred in ethanol at room temperature for three days
  crystal form obtained after suspending and stirring in ethanol: another anhydrate crystal form is obtained
Suspended and stirred in methanol at room temperature for one day
  crystal form obtained after suspending and stirring in methanol: another anhydrate crystal form is obtained
Suspended and stirred in water at room temperature for three days
  crystal form obtained after suspending and stirring in water: a hydrate crystal form is obtained
